Counter-ions that a name gives are not always drawn.
Key:
[1] = system: HCT-116, HCT-116-siRNA-topo1 and HCT-116-siRNA-topo2 cells; test: Single-cell array immunoblotting for topo1, topo2 and γH2AX in halo and nucleus; assay type: cell-based; conditions: alkaline solution, primary antibodies to topo1, topo2, γH2AX, fluorescent secondary antibodies
Description: (§1) Identification of topoisomerase complexes with DNA and histones at single-cell level can provide mechanistic confirmation on drug- or radiation-DNA interaction. Three colorectal cancer cell lines, HCT-116 (normal topo1/topo2 expression), HCT-116-siRNA-topo1 (low topo1 expression) and HCT-116-siRNA-topo2 (low topo2 expression), are treated with two drugs (one targets topo1 and the other targets topo2), followed by immunoblotting with the array of invention. First, cells are treated with CPT-11 (topo1 drug), and processed for use with the invention using SYBR SAFE dye to reflect the extent of DNA damage. […] In a second experiment, CPT-11 treated cells are subjected to an alkaline solution to allow damaged DNA diffusion (without fluorescence staining), and then incubated with three primary antibodies (topo1, topo2 and γH2AX) for 10 min. After washing to remove excess antibodies, three fluorescent secondary antibodies against topo1, topo2 and γ-H2AX are added. After washing away excess antibodies, the three proteins are detected with fluorescence imaging. […] Parallel studies with VP-16, which targets topo2 enzyme is performed. […] Similar experiments are performed to test X-ray irradiated cells. The results are compared to provide information on drug actions.

[2] = system: MCF7 cells; test: Paper-based single-cell array halo assay of DNA damage (NDF); conditions: drug concentration 50 μM (0 at 0 μM); FIG. 6E/6F
Description: (§2) Fibroblast cells, human glioblastoma cells (A172) and breast cancer cells (MCF7) were cultured in standard conditions (5% CO2 in air at 37° C.) in RPMI-1640 medium supplemented with 10% (v/v) fetal bovine serum and 1% (v/v) penicillin/streptomycin. For obtaining individual cells, cells were trypsinized.
(§3) After exposure to anticancer treatment (radiation or chemotherapy drug), cells were seeded on the cell array precursor at a density of 1×10^6 cells/ml, forming ordered single-cell arrays (FIG. 1A). The quality of single cell arrays was primarily determined by surface roughness of the substrate (FIGS. 3E-H). As the paper surface became smoother, more cells were attached, and the array became more ordered. The attachment probability was derived as the ratio between adsorbed cells and the number of micro-patches. The probability of single cell array increased as the number of layers increased from 25±3.1%, 70±3.5%, to 87±6.4% for 1, 3 and 5 layers of ink, respectively. Five layers of ink provided a high quality substrate for single cell array formation, making this method ideal for paper-based single-cell halo assay.
(§4) After incubating cells on the paper for 30 min, unattached cells were rinsed away with PBS, followed by addition of 1.5 ml 1% low melting point (LGT)-agarose on paper. The substrate was kept at room temperature for 10 min to allow gel solidification. Then, cells on the paper were immersed in 0.3 M NaOH for 30 min at room temperature, and stained with diluted (×10000) SYBR green I solution for 15 min. After removing unbound dye, cells were imaged using an Olympus IX81 fluorescent microscope and the acquired images were analyzed with in-house image analysis software to quantify DNA damage. Each data point was averaged from at least 50 individual cells.
(§5) An in-house MATLAB image processing software was developed for quantifying DNA damage. In order to isolate individual cells, images were thresholded using Otsu's method into 4 levels. The first level was considered background; the second and third levels were combined to label halo; and the fourth level was used to label the nucleus. All non-background levels were combined to form a binary image of a cell. The eccentricity of each cell object was measured on a scale of 0 to 1, where a score of 0 corresponded to a perfectly circular object and a score of 1 corresponded to a line. Cell objects with an eccentricity>0.5 were removed from the image on the assumption that they contain overlapping cells (due to deposition of un-patterned cells). FIGS. 4A-F show the process of automatic analysis of the single-cell array using MATLAB software. The original image was transferred from a color image to a grayscale image (FIG. 4A). […] DNA damage measurements were calculated based on the halos and nuclei labeled for each cell. […]

[3] = system: fibroblast cells; test: as above; conditions: drug concentration 50 μM (0 at 0 μM); FIG. 6E/6F
Description: as §2, §3, §4, §5

[4] = system: A172 cells; test: as above; set-up: species or system human; conditions: drug concentration 50 μM (0 at 0 μM); FIG. 6E/6F
Description: After incubating cells on the paper for 30 min, unattached cells were rinsed away with PBS, followed by addition of 1.5 ml 1% low melting point (LGT)-agarose on paper. The substrate was kept at room temperature for 10 min to allow gel solidification. […] After removing unbound dye, cells were imaged using an Olympus IX81 fluorescent microscope and the acquired images were analyzed with in-house image analysis software to quantify DNA damage. […]
An in-house MATLAB image processing software was developed for quantifying DNA damage. […] The eccentricity of each cell object was measured on a scale of 0 to 1, where a score of 0 corresponded to a perfectly circular object and a score of 1 corresponded to a line. […] DNA damage measurements were calculated based on the halos and nuclei labeled for each cell. […]

[5] = system: HCT-116, HCT-116-siRNA-topo1 and HCT-116-siRNA-topo2 cells; test: Single-cell array halo assay in colorectal cancer cell lines with normal or low topo1/topo2 expression; assay type: cell-based; conditions: SYBR SAFE dye; compared among HCT-116, HCT-116-siRNA-topo1 and HCT-116-siRNA-topo2
Description: as §1

| Compound | Protein found in halos (topoisomerase trapped in damaged DNA) [1] | NDF of MCF7 cells [2] | NDF of fibroblast cells [3] | NDF of A172 cells [4] | Halo size (extent of DNA damage) [5] |
| --- | --- | --- | --- | --- | --- |
| COc1cc([C@@H]2c3cc4c(cc3[C@@H](O[C@@H]3O[C@@H]5CO[C@@H](C)O[C@H]5[C@H](O)[C@H]3O)[C@H]3COC(=O)[C@H]23)OCO4)cc(OC)c1O [VP-16] | Only topo2 enzymes are trapped in damaged DNAs and diffused in halos |  |  |  |  |
| COc1cccc2c1C(=O)c1c(O)c3c(c(O)c1C2=O)C[C@@](O)(C(=O)CO)C[C@@H]3O[C@H]1C[C@H](N)[C@H](O)[C@H](C)O1 [doxorubicin, doxorubicin hydrochloride] |  | 3.95 | 4.63 | 3.91 |  |
| CCc1c2c(nc3ccc(OC(=O)N4CCC(N5CCCCC5)CC4)cc13)-c1cc3c(c(=O)n1C2)COC(=O)[C@]3(O)CC [irinotecan, irinotecan hydrochloride] | Only topo1 is found in halos | 4.05 | 4.34 |  | smallest in HCT-116-siRNA-topo1 cells |

Reference: patent US20170261494A1, “Disposable Single Cell Array for Personalized Diagnostics” (Northeastern University, priority 2016, published 2017)
